Data reported in patent US6623723B2, “Method for treating bronchial constriction and bronchospasm” (Cellular Sciences Inc., priority 2001, dated 2003).

System: subjects with mild bronchial asthma
Assay: Lung function (FEV-1 and PEF by spirometry) after a single inhaled dose in mild asthmatics
Format: in vivo, human
Conditions: single 5 ml inhaled dose
Description: Three concentrations of sodium pyruvate were studied; 0.5 mM, 1.5 mM and 5.0 mM. Sixty (60) subjects completed the study protocol. The 60 subjects included fifteen (15) non-asthmatic control individuals and forty-five (45) individuals with mild bronchial asthma. […] The total subject population was composed of 40 females and 20 males with a mean population age of 36.6 years (range of 18-66 years).
Individuals with mild bronchial asthma were divided into three groups of 15 subjects; each group received one of the three concentrations of sodium pyruvate. Each subject each inhaled a single dose of physiological saline (Visit 1) and on a return visit inhaled a single dose of 5.0 ml of one of the concentrations of sodium pyruvate (Visit 2).
Lung function assessments and vital signs were monitored at baseline (pre-dose) and at 15 minutes, 30 minutes 1 hour, 2 hours and 4 hours post administration. On a return visit (Visit 2), each subject inhaled a single 5 ml dose of sodium pyruvate in physiological saline. The physiological lung functions assessed included Forced Expiratory Volume in One Second (FEV-1) and Peak Expiratory Flow (PEF).
An FEV-1 and PEF values are obtained during routine spirometry testing. FEV-1 is the volume of air expelled in the first second of a forced expiration starting from full inspiration. It is the most widely accepted indicator of obstructive lung disease severity and used because it is objective and reproducible. PEF is the greatest flow rate that can be sustained for 10 milliseconds on forced expiration from full inflation of the lungs. Changes of greater than 10% FEV-1 and greater than 25% in PEF are generally accepted as clinically relevant ant were used as standards in data evaluation for this study.

With `CC(=O)C(=O)[O-].[Na+]` [sodium pyruvate] the “percent change in FEV-1” value (0.5 mM sodium pyruvate, 15 minutes (p=0.012), 30 minutes (p=0.039), 1 hour (p=0.054), 2 hours (p=0.0001), compared to inhalation of physiological saline) was “greater than 10%”, the “percent change in PEF” value (0.5 mM sodium pyruvate, 15 minutes (p=0.014), 30 minutes (p=0.027), 1 hour (p=0.012), 2 hours (p=0.024), 4 hours (p=0.018), compared to inhalation of physiological saline) was “greater than 25%” and the “change in FEV-1” value (1.5 mM sodium pyruvate) was “No significant change”. The “change in PEF” value (1.5 mM sodium pyruvate) was “No significant change”, the “change in FEV-1” value (5.0 mM sodium pyruvate) was “No significant change” and the “change in PEF” value (5.0 mM sodium pyruvate) was “No significant change”.
